From publication PMC5671725, “Fluorinated Adenosine A2A Receptor Antagonists Inspired by Preladenant as Potential Cancer Immunotherapeutics” (International Journal of Medicinal Chemistry, 2017)
Values after ≈ are worked out from the molar mass of the structure shown.

What was measured:
CL8-1 melanoma = tested on: CL8-1 melanoma; design: method as in PMID 18163162, PMID 17404693, PMID 18404426, PMID 18311159, PMID 19201652; settings: mice; cited from earlier work
A2AR [1] = molecular target: T1, A2AR (Mus musculus, UniProt Q60613); design: endogenous in cells; method as in PMID 24126093; settings: compared with xanthine 2; cited from earlier work
A2AR [2] = molecular target: T1, A2AR; design: endogenous in cells; host or cells: primary lymphocytes from the spleen of C57/BL6 mice; method as in PMID 24126093; settings: compared with xanthine 2; cited from earlier work
A2ARs = molecular target: T2, A2ARs (Mus musculus, UniProt Q60613); assay: Concanavalin A (ConA)-induced liver damage assay; type: in vivo; settings: female C57BL/6 mice, 2 mg kg^-1 compound then Con A 20 mg kg^-1, evaluated at 8 h
T2 construct: from tissue; host or cells: whole animal, female C57BL/6 mice (in vivo)
Description: To select lead compounds for immunotherapy application, an in vivo Concanavalin A (ConA)-induced liver damage assay was carried out in C57BL/6 mice through the pharmacological activation and deactivation of A2ARs. A variety of compounds were screened including 2, 3, and 4 [10, 18, 19]. […] Fluorinated analogs were envisioned to potentially serve as leads to ultimately be labeled at the distal position with fluorine-18 (t1/2 = 109.8 min), for diagnostic imaging with positron emission tomography (PET). A series of fluorinated PEG groups with increasing chain lengths were proposed for chemical modification to map the structure-activity relationship (SAR). Such modifications increase both hydrophilicity and molecular weight (MW), potentially to reduce blood-brain barrier (BBB) penetration as predicted by the central nervous system multiparameter optimization (MPO) score reported by Wager et al..
Figure 2 ConA-induced liver damage in C57BL/6 mice via CGS (6), 2, 3 and 4. Female C57BL/6 mice (n = 5) were first injected with A2AR agonist CGS (6, 2 mg kg^−1), 2 mg kg^−1 2, 3, and 4 separately, and then Con A (20 mg kg^−1). Con A-induced liver damage evaluated at 8 h.

[3] = design: method as in PMID 24164628, PMID 25311639, PMID 25174927; settings: Parkinson's disease; cited from earlier work
A2AR [4] = molecular target: T1, A2AR; assay: Cytokine release assay: IFN-gamma secretion by anti-CD3 activated splenocytes treated with CGS; type: cell-based, C57BL/6 mice; design: endogenous in cells; settings: 0.1 µg/mL anti-CD3, 1 µM CGS plus 1 µM compound, one day, ELISA
Description: The second immunoassay assesses secretion of the cytokine IFN-gamma, since it is considered to be sensitive to the A2AR signaling pathway. In these assays, during T cell receptor (TCR) activation by the CD3 ligand, C57BL/6 mice splenocytes T cells are incubated with A2AR agonist CGS to inhibit IFN-gamma secretion resulting from A2AR-induced immunosuppression via intracellular cAMP. Effective A2AR antagonists block the A2AR-activated signal, thus restoring secretion of the cytokine to potentiate and prolong the immune response.
Figure 6 The IFN-gamma production by splenocytes after activation with 0.1 µg/mL anti-CD3 and when treated with vehicle, 1 µM CGS, and 1 µM CGS plus 1 µM compounds 29, 2 (KW-6002), 3 (KW-PEG), and 4 (preladenant) separately is shown. The IFN-gamma levels were determined in the supernatant one day following stimulation using quantitative ELISA and are expressed as pg/mL. Data shown represent mean ± SEM of triplicate samples.
(§1) Measuring functionality of A2AR antagonism by cAMP assay
Stimulation of intracellular cAMP production and measurement of cAMP levels were performed as described previously.[18b] […] Levels of cAMP were determined by ELISA (Amersham Biosciences, Buckinghamshire, UK). […]

A2AR [5] = molecular target: T1, A2AR; assay: Inhibition of A2AR-induced (CGS21680) intracellular cAMP accumulation in lymphocytes; type: cell-based, C57/BL6 mice; design: endogenous in cells; host or cells: primary lymphocytes from the spleen of C57/BL6 mice; settings: 1 µM CGS plus 1 μM compound, 15 min, cAMP ELISA
Description: Bioassay of compounds 27–31 and 40 and their parent compounds (4 and 5a) was conducted using two functional assays that evaluate A2AR binding-dependent signaling through A2AR on the surface of T cells. The first assay screens compounds on the basis of their extent of inhibition of A2AR-induced intracellular cAMP accumulation in A2AR expressing lymphocytes. The A2AR agonist, CGS21680 (CGS, 6), was used to activate A2AR.
Figure 4 Intracellular cAMP levels in lymphocytes after incubation with vehicle, 1 µM CGS, and 1 µM CGS plus 1 μM of compounds 4 (preladenant), 27–31, 5a (tozadenant), 40, 2 (KW-6002), and 3 (KW-PEG) are shown. The intracellular cAMP levels were determined 15 min following stimulation using quantitative cAMP ELISA and are expressed as fmol/10^6 cells. Data shown represent mean ± SEM of triplicate samples.
as §1
Stimulation of intracellular cAMP production and measurement of cAMP levels were performed as described previously.[18b] Lymphocytes were isolated from the spleen of C57/BL6 mice and suspended at a concentration of 400,000 cells/well, and then treated with 1 µM CGS 21680 6 (A2AR-specific agonist; from Tocris, Ellisville, MO) with or without KW-6002 2, KW-PEG 3, preladenant 4, tozadenant 5a and their PEGylated analogs 27-31 and 40 (at a concentration of […]). The cells were incubated for 15 min at 37 °C , and the reaction was stopped by addition of 1 N hydrochloric acid. Levels of cAMP were determined by ELISA (Amersham Biosciences, Buckinghamshire, UK). All treatment groups were performed in triplicate. […]

[6] = Log D7.4 shake-flask octanol-water; type: physicochemical; settings: octanol / 10 mM sodium phosphate pH 7.4, read-out: logD7.4
Description: Determination of Physicochemical Properties […]
A shake-flask method was employed to determine octanol-water distribution coefficients at pH
7.4 (Log D7.4). The aqueous solution used was 10 mM sodium phosphate pH 7.4 buffer. The
method was validated for Log D7.4 ranging from -2 to 5.0. […]

[7] = Aqueous pH 7.4 solubility; type: physicochemical; settings: aqueous buffer, thermodynamic from solid; 0.1 M phosphate buffer pH 7.4, 25°C, 20-24 hours
Description: (§2) Determination of Physicochemical Properties
(§3) Aqueous pH 7.4 Solubility
(§4) Compounds were dried down from 10 mM DMSO solutions using centrifugal evaporation techniques. Phosphate buffer (0.1 M pH 7.4) was added and StirStix inserted in the glass vials.
Agitation was then performed at a constant temperature of 25°C for 20 -24 hours. The vials were then subjected to double centrifugation (with a tip wash in between) to eliminate any residues of the dried compound. The solutions were then diluted and quantitated using LC/MS/MS. […]

[8] = Human plasma protein binding (equilibrium dialysis, RED device); type: in vitro ADME; settings: pH 7.4, 10 µM initial concentration, 37°C, read-out: Human PPB (converted)
Description: Figure S1. Docking results of compounds 27-29 via Glide XP method. The H-bond interaction is represented as a pink arrow, pi-pi stacking as a green arrow. (A) Compound 27 docking pattern. (B) Compound 28 docking pose. (C) Compound 29 docking result. Pictures are rendered […]
as §2, §3, §4
Agitation was then performed at a constant temperature of 25°C for 20 -24 hours. The vials were then subjected to double centrifugation (with a tip wash in between) to eliminate any residues of the dried compound. The solutions were then diluted and quantitated using LC/MS/MS.
A shake-flask method was employed to determine octanol-water distribution coefficients at pH 7.4 (Log D7.4). The aqueous solution used was 10 mM sodium phosphate pH 7.4 buffer. The method was validated for Log D7.4 ranging from -2 to 5.0.
Human Plasma Protein Binding (PPB)
PPB was determined using equilibrium dialysis (RED device) to separate free from bound compound. The amount of compound in plasma (10 µM initial concentration) and in dialysis […]
(§5) buffer (pH 7.4 phosphate buffer) was measured by LC-MS/MS after equilibration at 37°C in a dialysis chamber. The fraction unbound (fu) is reported.
(§6) In vitro intrinsic clearance was determined from human liver microsomes or rat hepatocytes using standard methods. Following incubation and preparation, the samples were analyzed using […]
(§7) µl/min/mg or µl/min/1 million cells.

[9] = Intrinsic clearance in human liver microsomes; type: in vitro ADME; settings: read-out: HLM CLint
Description: as §5, §6, §7

[10] = Intrinsic clearance in rat hepatocytes; type: in vitro ADME
Description: as §5, §6, §7

T1 sequence (Q60613 whole entry): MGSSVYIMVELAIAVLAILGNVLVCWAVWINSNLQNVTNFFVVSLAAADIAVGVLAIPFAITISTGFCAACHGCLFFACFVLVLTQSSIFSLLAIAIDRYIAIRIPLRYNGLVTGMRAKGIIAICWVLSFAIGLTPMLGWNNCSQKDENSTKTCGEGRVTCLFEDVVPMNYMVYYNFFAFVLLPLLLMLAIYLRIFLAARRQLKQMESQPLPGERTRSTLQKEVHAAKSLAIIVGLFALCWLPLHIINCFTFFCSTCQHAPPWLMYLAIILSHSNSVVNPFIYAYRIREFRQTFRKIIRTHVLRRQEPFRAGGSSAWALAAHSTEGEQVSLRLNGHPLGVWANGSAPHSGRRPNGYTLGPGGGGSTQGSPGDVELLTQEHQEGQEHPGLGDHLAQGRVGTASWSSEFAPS
T2 sequence (Q60613 whole entry): as above

SMILES | logD [6] | solubility [7] [µM] | fraction unbound at 10 µM [8] | microsomal CLint [9] [µL/min/mg] | Rat hepatocyte CLint [10] [μL/min/10^6] | Antagonism of CGS-mediated intracellular cAMP accumulation (A2AR [5]) | further results
Nc1nc(NCCc2ccc(O)cc2)nc2nc(-c3ccco3)nn12 [Compound 1, ZM241385] |  |  |  |  |  |  | Growth of CL8-1 melanoma (CL8-1 melanoma): delayed growth of CL8-1 melanoma in mice; Levels of endogenous antitumor T cells (CL8-1 melanoma): increased levels of endogenous antitumor T cells
CCn1c(=O)c2c(nc(/C=C/c3ccc(C(=O)OCCOCCOCCOCCOCCOCCOCCOCCOC)c(OC)c3)n2C)n(CC)c1=O [Compound 3] |  |  |  |  |  |  | Cytokine IFN-gamma restoration (A2AR [1]): enhanced properties; cAMP suppression (A2AR [2]): enhanced properties
COCCOc1ccc(N2CCN(CCn3ncc4c3nc(N)n3nc(-c5ccco5)nc43)CC2)cc1 [Compound 4, preladenant] |  |  |  |  |  |  | ConA-induced liver damage (A2ARs): most severe immune induced liver damage; Efficacy in Phase III trials [3]: failed to show efficacy; Restoration of IFN-gamma secretion (A2AR [4]): superior restoration of IFN-gamma secretion compared to either 2 or 3
COc1ccc(N2CCOCC2)c2sc(NC(=O)N3CCC(C)(O)CC3)nc12 [Compound 5a, tozadenant, reference compound] |  |  |  |  |  | inferior antagonism to that of compounds 2 and 3 | 
Nc1nc2c(cnn2CCN2CCN(c3ccc(OCCOCCOCCOCCOCCOCCF)cc3)CC2)c2nc(-c3ccco3)nn12 [Compound 30] |  |  |  |  |  | decreased antagonism | 
COCCOCCOCCOCCOCCOCCOCCOCCOc1ccc(N2CCN(CCn3ncc4c3nc(N)n3nc(-c5ccco5)nc43)CC2)cc1 [Compound 31] |  |  |  |  |  | decreased antagonism | 
COCCOCCOCCOCCOCCOCCOCCOCCOc1ccc(N2CCN(C(=O)Nc3nc4c(OC)ccc(N5CCOCC5)c4s3)CC2)cc1 [Compound 40] |  |  |  |  |  | no suppression of intracellular cAMP accumulation | 

Continued, in another order:

logD [6] | solubility [7] [µM] | fraction unbound at 10 µM [8] | microsomal CLint [9] [µL/min/mg] | Rat hepatocyte CLint [10] [μL/min/10^6] | SMILES | Antagonism of CGS-mediated intracellular cAMP accumulation (A2AR [5]) | further results
2.8 | 74 (≈ 36.4 µg/mL) | 0.01 | 16.5 | 29.9 | Nc1nc2c(cnn2CCN2CCN(c3ccc(OCCF)cc3)CC2)c2nc(-c3ccco3)nn12 [Compound 27] |  | 
2.5 | 2 (≈ 1.07 µg/mL) | 0.013 | 71.9 | 12.8 | Nc1nc2c(cnn2CCN2CCN(c3ccc(OCCOCCF)cc3)CC2)c2nc(-c3ccco3)nn12 [Compound 28] |  | 
2.3 | 10 (≈ 5.8 µg/mL) | 0.017 | 66.1 | 72.9 | Nc1nc2c(cnn2CCN2CCN(c3ccc(OCCOCCOCCF)cc3)CC2)c2nc(-c3ccco3)nn12 [Compound 29] |  | Restoration of IFN-gamma secretion (A2AR [4]): superior restoration of IFN-gamma secretion compared to either 2 or 3
